Test results: patent US20120165319A1, “INHIBITORS OF INTERLEUKIN-1 BETA CONVERTING ENZYME” (VERTEX PHARMACEUTICALS INCORPORATED, priority 1995, published 2012)

Molecular target: T1, ICE (Homo sapiens, UniProt P29466)
T1 sequence (P29466 120-297 limits assumed): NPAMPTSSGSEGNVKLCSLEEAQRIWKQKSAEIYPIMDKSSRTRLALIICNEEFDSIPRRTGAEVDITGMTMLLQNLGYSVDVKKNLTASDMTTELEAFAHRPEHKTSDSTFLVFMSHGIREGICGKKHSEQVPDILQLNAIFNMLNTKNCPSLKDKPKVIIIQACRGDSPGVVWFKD
T1 sequence (P29466 317-404 limits assumed): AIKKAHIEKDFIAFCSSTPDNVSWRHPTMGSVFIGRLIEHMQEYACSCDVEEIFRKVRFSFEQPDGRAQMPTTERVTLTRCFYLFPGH
Test: Enzyme assay with UV-visible substrate (visible ICE assay, Succinyl-Tyr-Val-Ala-Asp-pNitroanilide)
Assay type: biochemical
Method: 1. Enzyme Assay with Uv-Visible Substrate
This assay is run using an Succinyl-Tyr-Val-Ala-Asp-pNitroanilide substrate. Synthesis of analogous substrates is described by L. A. Reiter (Int. J. Peptide Protein Res. 12, 87-96 (1994)). The assay mixture contains:
The visible ICE assay is run in a 96-well microtiter plate. Buffer, ICE and DMSO (if inhibitor is present) are added to the wells in the order listed. The components are left to incubate at room temperature for 15 minutes starting at the time that all components are present in all wells. The microtiter plate reader is set to incubate at 37° C. After the 15 minute incubation, substrate is added directly to the wells and the reaction is monitored by following the release of the chromophore (pNA) at 405-603 nm at 37° C. for 20 minutes. A linear fit of the data is performed and the rate is calculated in mOD/min. DMSO is only present during experiments involving inhibitors, buffer is used to make up the volume to 100 μl in the other experiments.
For determination of enzyme inhibition constants (Ki) or the mode of inhibition (competitive, uncompetitive or noncompetitive), the rate data determined in the enzyme assays at varying inhibitor concentrations are computer-fit to standard enzyme kinetic equations (see I. H. Segel, Enzyme Kinetics, Wiley-Interscience, 1975).

Structure (SMILES) | Ki (Table 17) [µM] | further results
O=C[C@H](CC(=O)O)NC(=O)[C@@H]1CCCN2C(=O)CCN(NC(=O)C(=O)Nc3ccc(Cl)cc3)C(=O)N12 [Compound 1120] | 0.095 | –
O=C[C@H](CC(=O)O)NC(=O)[C@@H]1CCCN2C(=O)CCN(NC(=O)C(=O)c3cccs3)C(=O)N12 [Compound 1107] | 0.065 | –
NS(=O)(=O)c1ccc(C(=O)N[C@H]2CCC(=O)N3CCC[C@@H](C(=O)N[C@H](C=O)CC(=O)O)N3C2=O)cc1 [Compound 478] | – | Ki (Table 5): 0.38 µM
O=C[C@H](CC(=O)O)NC(=O)[C@@H]1CCCN2C(=O)CCN(NC(=O)/C=C/c3ccc(Cl)c(Cl)c3)C(=O)N12 [Compound 1115] | 0.25 | –
Cc1cccc(CC(=O)N2C[C@H](NC(=O)c3ccccc3)C(=O)N(CC(=O)N[C@H](C=O)CC(=O)O)c3ccccc32)c1 [Compound 605t, (3S)-3-[(3S)-2-Oxo-3-benzoylamino-5-(3-methylphenylacetyl)-2,3,4,5-tetrahydro-1H-1,5-benzodiazepin-1-acetylamino]-4-oxo-butyric acid] | – | Ki (Table 5): 0.033 µM
CC(=O)N[C@@H](CCC(=O)O)C(=O)N[C@H]1CN(C(=O)CO)c2ccccc2N(CC(=O)N[C@H](C=O)CC(=O)O)C1=O [Compound 731] | – | Ki (Table 27): 0.15 µM
O=C[C@H](CC(=O)O)NC(=O)[C@@H]1CCCN2C(=O)CCN(NC(=O)Cc3ccc4c(c3)OCO4)C(=O)N12 [Compound 1121] | 0.17 | –
